In US5399487A, “6-peptidylamino-1-naphthalenesulfonamides useful as fluorogenic proteolytic enzyme substrates” (Haematologic Technologies, Inc., priority 1993, dated 1995):
Where a SMILES comes first, the peptide text is derived from it. The star is where a group is joined. pNA = O=[N+]([O-])c1ccc(N*)cc1; Tos = Cc1ccc(S(=O)(=O)*)cc1

Experiments:
Type in all cases: biochemical
factor IIa = target: T1, factor IIa (Homo sapiens, UniProt P00734); experiment: Kinetic constants of substrate hydrolysis, Chromozyme TH vs TosGPR-ANSN (Table A); settings: 22° C., 0.02M TBS pH 7.4, 0.15M NaCl
T1 construct: 0.5 nM human thrombin (IIa)
Experimental: (§1) The 6-amino-1-naphthalenesulfonamide detecting group increased the specificity of the overall kinetic efficiency of substrate hydrolysis by thrombin relative to the rate of hydrolysis of the p-nitroanilide substrate chromozyme TH (American Diagnostics). Commercially available substrate (Chromozyme TH, TosGPR-p-NA) was compared to a substrate of the present invention, Tosgly-pro-arg-ANSN(i-C4 H9) (TosGPR-ANSNH(i-C4 H9)) in an assay performed at 22° C. in 0.02M TBS buffer at pH 7.4, containing 0.15M NaCl.

factor Xa [1] = target: T2, factor Xa (Homo sapiens, UniProt P00742); experiment: as above; settings: 22° C., 0.02M TBS pH 7.4, 0.15M NaCl
T2 sequence (P00742 235-488 limits assumed): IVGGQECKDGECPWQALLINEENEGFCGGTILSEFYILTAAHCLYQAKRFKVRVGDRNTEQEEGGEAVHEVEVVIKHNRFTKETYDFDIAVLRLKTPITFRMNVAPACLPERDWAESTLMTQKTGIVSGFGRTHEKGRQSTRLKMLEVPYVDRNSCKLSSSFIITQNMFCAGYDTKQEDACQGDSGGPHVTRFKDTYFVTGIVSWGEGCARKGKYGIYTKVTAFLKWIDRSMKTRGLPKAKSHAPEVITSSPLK
T2 sequence (P00742 41-179 limits assumed): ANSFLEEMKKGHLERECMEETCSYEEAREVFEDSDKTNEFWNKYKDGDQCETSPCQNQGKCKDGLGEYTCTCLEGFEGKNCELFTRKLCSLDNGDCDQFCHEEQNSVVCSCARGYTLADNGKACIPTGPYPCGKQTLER
Experimental: as §1

[2] = target: tissue plasminogen activator (t-PA) (Homo sapiens, UniProt P00750); experiment: Fluorogenic enzyme assay (Example 5); settings: 100 nM enzyme, substrate 1 μM
Chain of tissue plasminogen activator (t-PA) (P00750 36-562, species assumed): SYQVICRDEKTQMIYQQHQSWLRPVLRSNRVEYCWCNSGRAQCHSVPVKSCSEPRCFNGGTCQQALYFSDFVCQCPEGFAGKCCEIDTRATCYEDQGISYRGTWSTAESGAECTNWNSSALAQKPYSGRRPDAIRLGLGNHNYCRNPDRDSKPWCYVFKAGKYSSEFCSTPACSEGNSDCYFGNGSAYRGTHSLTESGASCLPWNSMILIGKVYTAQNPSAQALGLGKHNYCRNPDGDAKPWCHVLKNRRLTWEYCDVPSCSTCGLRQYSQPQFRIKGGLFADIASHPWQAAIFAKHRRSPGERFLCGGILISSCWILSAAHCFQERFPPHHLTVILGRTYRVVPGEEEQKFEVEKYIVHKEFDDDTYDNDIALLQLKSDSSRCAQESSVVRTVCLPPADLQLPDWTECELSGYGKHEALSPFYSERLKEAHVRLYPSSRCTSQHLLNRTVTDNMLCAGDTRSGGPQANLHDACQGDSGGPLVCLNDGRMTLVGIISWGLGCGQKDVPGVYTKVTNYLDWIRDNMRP
Method in brief: (§2)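 Run in TBS (20 mM Tris, 150 mM NaCl, pH 7.4) at 22° C. Enzyme was added to buffer plus fluorogenic substrate, and the initial hydrolysis rate was followed as release of a 6-amino-1-naphthalenesulfonamide fluorophore (ex 352 nm, em 470 nm), quantified against a fluorophore standard curve. Km and kcat came from Michaelis-Menten fits.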

urokinase (u-PA) = urokinase (u-PA) (Homo sapiens, UniProt P00749); experiment: Fluorogenic enzyme assay (Example 5); settings: 100 nM enzyme, substrate 1 μM
plasmin (Plm) = plasmin (Plm) (Homo sapiens, UniProt P00747); experiment: Fluorogenic enzyme assay (Example 5); settings: 10 nM enzyme, substrate 1 μM
Chain of plasmin (Plm) (P00747 581-810 limits assumed, species assumed): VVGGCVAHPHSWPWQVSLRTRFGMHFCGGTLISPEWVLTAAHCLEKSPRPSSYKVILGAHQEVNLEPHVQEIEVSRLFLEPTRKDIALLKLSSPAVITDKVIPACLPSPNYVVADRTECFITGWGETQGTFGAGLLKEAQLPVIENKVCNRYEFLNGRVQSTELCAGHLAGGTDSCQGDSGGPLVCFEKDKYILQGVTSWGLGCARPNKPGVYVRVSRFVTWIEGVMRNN
Chain of plasmin (Plm) (P00747 97-580 limits assumed, species assumed): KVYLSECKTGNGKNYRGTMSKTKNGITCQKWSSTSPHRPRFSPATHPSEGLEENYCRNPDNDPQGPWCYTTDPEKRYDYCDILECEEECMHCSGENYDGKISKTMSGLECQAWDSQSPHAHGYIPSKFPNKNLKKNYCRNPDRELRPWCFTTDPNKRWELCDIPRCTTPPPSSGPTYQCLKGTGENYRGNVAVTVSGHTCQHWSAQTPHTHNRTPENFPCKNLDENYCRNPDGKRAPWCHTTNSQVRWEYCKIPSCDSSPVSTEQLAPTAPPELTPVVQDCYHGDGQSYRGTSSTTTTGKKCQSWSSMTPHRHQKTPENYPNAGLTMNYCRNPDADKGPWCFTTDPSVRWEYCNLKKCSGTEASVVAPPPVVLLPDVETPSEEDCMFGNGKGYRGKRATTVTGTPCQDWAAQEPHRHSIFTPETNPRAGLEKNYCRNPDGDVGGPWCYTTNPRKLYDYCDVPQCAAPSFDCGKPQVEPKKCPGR
Method in brief: as §2

factor VIIa = target: T3, factor VIIa (Homo sapiens, UniProt P08709); experiment: Fluorogenic enzyme assay, relative hydrolysis rates (Table 8); settings: at 100 hours; 10 nM enzyme, substrate 1 μM
T3 construct: directly measure the enzymatic activity of factor VIIa in the presence and absence of tissue factor and phospholipid
T3 sequence (P08709 213-466 limits assumed): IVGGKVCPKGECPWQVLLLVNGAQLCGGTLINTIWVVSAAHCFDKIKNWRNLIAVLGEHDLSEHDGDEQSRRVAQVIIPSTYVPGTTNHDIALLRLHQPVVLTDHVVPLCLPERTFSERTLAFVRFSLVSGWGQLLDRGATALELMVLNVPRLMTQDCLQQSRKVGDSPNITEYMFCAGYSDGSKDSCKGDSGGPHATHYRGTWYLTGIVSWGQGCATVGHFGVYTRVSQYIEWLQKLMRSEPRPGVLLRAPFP
T3 sequence (P08709 61-212 limits assumed): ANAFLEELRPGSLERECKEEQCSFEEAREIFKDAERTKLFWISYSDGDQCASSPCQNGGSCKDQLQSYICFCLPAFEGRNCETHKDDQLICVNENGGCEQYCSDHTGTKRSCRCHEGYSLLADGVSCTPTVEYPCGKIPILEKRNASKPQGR
Experimental: (§3) Enzyme assays (except factor VIIa assays, see below) were conducted in 20 mM Tris, 150 mM NaCl, pH 7.4 (TBS) at room temperature (22° C.). The final volume for all reaction mixtures was 2.0 ml. Fluorogenic substrates were dissolved in DMSO to a stock concentration of 10 mM. The 10 mM stock solution was diluted in TBS to the final working concentration prior to all assays. Enzyme was added to mixtures containing buffer components and substrate and the initial rate of substrate hydrolysis was measured as the change in fluorescent intensity over time, corresponding to the generation of the particular 6-amino-1-naphthalenesulfonamide fluorophore from the provided substrate. Quantitation of substrate hydrolysis was accomplished by establishing a standard curve from the appropriate fluorescent moiety. Fluorescence was monitored (continuously or discontinuously) using a Perkin Elmer fluorescence spectrophotometer, model MPF-44A, equipped with a standard chart recorder. The fluorophore was detected using monochrometers set at an excitation wavelength of 352 nm and an emission wavelength of 470 nm. Light scattering artifacts were minimized using a 399 nm cut off filter in the emission light beam.
Factor VII assays were conducted in 20 mM HEPES, 150 mM NaCl, 5 mM CaCl2, pH 7.4 (HBS) at 37° C. The final volume for all reactions was 1.6 ml. 6-(Mes-D-Leu-Gly-Arg)amino-1-(N,N-diethyl)naphthalenesulfonamide was dissolved in DMSO to a stock concentration of 10 mM. This 10 mM stock solution of was diluted in HBS to final working concentration prior to all assays. For reactions involving tissue factor (TF) and phospholipid vesicles, recombinant human tissue factor was solubilized in either 0.04% n-dodecyl octaethylene glycol (C12 E8) or 0.8% octyl glucoside. The TF/n-dodecyl octaethylene glycol was then relipidated into PCPS or PC vesicles by a 30 minute incubation step as described by Lawson & Mann, J. Biol. Chem. 266: 11317-11327 (1991). TF/octyl glucoside was relipidated into PC or PCPS vesicles by a thirty minute incubation step followed by exhaustive dialysis. The final concentration of tissue factor used in the studies described here ranged from 2 to 50 nM depending on the nature of the experiment.
Fifteen minutes prior to the start of all reactions factor VIIa was added to the reaction system. This incubation period was followed by the addition of substrate (1 μM to 400 μM) to the mixture to start the reaction. In experiments designed to determine kinetic constants of substrate hydrolysis, 50 nM rVIIa was used when no tissue factor was present in the reaction system, while 0.5 nM rVIIa was used when tissue factor was present in the reaction system. The rate of substrate hydrolysis was measured by change in fluorescence over time, which corresponded with the generation of the 6-amino-1-(N,N-diethyl)naphthalenesulfonamide from the provided substrate. The kinetic constants of 6-(Mes-D-Leu-Gly-Arg)amino-1-(N,N-diethyl)naphthalenesulfonamide hydrolysis as a function of factor VIIa/tissue factor complex assembly are shown in Table 10.

factor Xa [3] = target: T2, factor Xa; experiment: Fluorogenic enzyme assay (Example 5); parameters: key to Kinetic constants, Xa (symbol b): slow substrate hydrolysis, no kinetic constants calculated
Method in brief: as §2

thrombin (IIa) = target: T4, thrombin (IIa) (Homo sapiens, UniProt P00734); experiment: Fluorogenic enzyme assay (Example 5); parameters: key to Kinetic constants, IIa (symbol b): slow substrate hydrolysis, no kinetic constants calculated; settings: for TIME TO 10% HYDROLYSIS (HOURS), IIa: substrate 1 μM
T4 construct: 0.5 nM human thrombin (IIa)
Method in brief: as §2

factor IXa = factor IXa (Homo sapiens, UniProt P00740); experiment: Fluorogenic enzyme assay (Example 5); parameters: key to Kinetic constants, IXa (symbol b): slow substrate hydrolysis, no kinetic constants calculated
Chain of factor IXa (P00740 227-461 limits assumed): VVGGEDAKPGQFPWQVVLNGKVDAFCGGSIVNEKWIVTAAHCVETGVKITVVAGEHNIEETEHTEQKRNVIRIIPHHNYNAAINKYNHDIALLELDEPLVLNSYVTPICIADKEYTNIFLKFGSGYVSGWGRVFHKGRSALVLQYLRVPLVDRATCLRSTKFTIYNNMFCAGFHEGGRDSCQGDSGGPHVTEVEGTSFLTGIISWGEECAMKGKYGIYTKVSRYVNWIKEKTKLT
Chain of factor IXa (P00740 47-191 limits assumed): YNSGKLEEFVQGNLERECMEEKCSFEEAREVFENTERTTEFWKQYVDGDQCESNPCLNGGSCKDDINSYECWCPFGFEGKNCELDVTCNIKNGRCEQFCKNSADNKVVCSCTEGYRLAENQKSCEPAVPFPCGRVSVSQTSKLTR
Experimental: as §3
The kinetic constants of substrate hydrolysis were determined using the non-linear least squares regression analysis program ENZFITTER (Cambridge, UK). This program was used to iteratively fit initial rates of substrate hydrolysis to the Michaelis-Menten equation and the kinetic constants of substrate hydrolysis (Km) and (kcat) were calculated.

[4] = target: activated protein C (APC) (Homo sapiens, UniProt P04070); experiment: Fluorogenic enzyme assay (Example 5); settings: for TIME TO 10% HYDROLYSIS (HOURS), APC: 10 nM enzyme, substrate 1 μM; for Km / kcat /Km, APC / kcat, APC: Table 9
Chain of activated protein C (APC) (P04070 212-461 limits assumed): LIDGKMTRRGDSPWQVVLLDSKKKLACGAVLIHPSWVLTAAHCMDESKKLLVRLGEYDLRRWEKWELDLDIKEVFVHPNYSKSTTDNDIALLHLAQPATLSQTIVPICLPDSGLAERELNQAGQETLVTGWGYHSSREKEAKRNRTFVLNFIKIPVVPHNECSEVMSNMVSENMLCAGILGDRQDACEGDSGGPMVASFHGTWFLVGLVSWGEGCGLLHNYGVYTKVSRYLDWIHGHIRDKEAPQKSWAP
Chain of activated protein C (APC) (P04070 43-197 limits assumed): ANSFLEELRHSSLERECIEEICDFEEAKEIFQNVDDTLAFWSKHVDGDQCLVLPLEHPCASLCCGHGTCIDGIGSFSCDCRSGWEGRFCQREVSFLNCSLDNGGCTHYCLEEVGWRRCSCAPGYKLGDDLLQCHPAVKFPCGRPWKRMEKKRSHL
Method in brief: as §2

Cc1ccc(S(=O)(=O)NCC(=O)N2CCC[C@H]2C(=O)N[C@@H](CCCNC(=N)N)C(=O)Nc2ccc([N+](=O)[O-])cc2)cc1 [Chromozyme TH, reference compound] (Tos-Gly-Pro-Arg-pNA)
Kcat (factor IIa): 14.1 | Km (factor IIa): 13.8 µM | Kcat (factor Xa [1]): 244 s⁻¹ | Km (factor Xa [1]): 364 µM

Cc1ccc(S(=O)(=O)NCC(=O)N2CCC[C@H]2C(=O)N[C@@H](CCCNC(=N)N)C(=O)Nc2ccc3c(S(=O)(=O)NCC(C)C)cccc3c2)cc1 [TosGPR-ANSNH(i-C4 H9)]
TIME TO 10% HYDROLYSIS (HOURS), t-PA [2]: 2 h | TIME TO 10% HYDROLYSIS (HOURS), u-PA (urokinase (u-PA)): 0.01 h | TIME TO 10% HYDROLYSIS (HOURS), Plm (plasmin (Plm)): 0.25 h | hydrolysis, VIIa (symbol d) (factor VIIa): d (hydrolysis at 100 hours was less than 10%.) | Kcat (factor IIa): 45.6 | Km (factor IIa): 10.5 µM | Kcat (factor Xa [1]): 11.2 s⁻¹ | Km (factor Xa [1]): 132 µM | TIME TO 10% HYDROLYSIS (HOURS), Xa (factor Xa [3]; 10 nM enzyme, substrate 1 μM): 0.05 h | Km (factor Xa [3]; Table 9): 35.3 µM | kcat /Km, Xa (factor Xa [3]; Table 9): 6800 M⁻¹ s⁻¹ | kcat, Xa (factor Xa [3]; Table 9): 2.4 s⁻¹ | TIME TO 10% HYDROLYSIS (HOURS), IIa (thrombin (IIa); 1 nM enzyme (footnote c)): 0.01 h | Km (thrombin (IIa); Table 9): 11 µM | kcat, IIa (thrombin (IIa); Table 9): 52.6 s⁻¹ | TIME TO 10% HYDROLYSIS (HOURS), IXa (factor IXa; 100 nM enzyme, substrate 1 μM): 42 h | Km (factor IXa; Table 9): 123 µM | kcat, IXa (factor IXa; Table 9): 0.3 s⁻¹ | kcat/Km, IXa (factor IXa; Table 9): 2400 M⁻¹ s⁻¹ | TIME TO 10% HYDROLYSIS (HOURS), APC [4]: 0.02 h | Km [4]: 800 µM | kcat /Km, APC [4]: 150000 M⁻¹ s⁻¹ | kcat, APC [4]: 120 s⁻¹

N=C(N)NCCC[C@H](NC(=O)CNC(=O)CNC(=O)OCc1ccccc1)C(=O)N[C@@H](CCCNC(=N)N)C(=O)Nc1ccc2c(S(=O)(=O)NC3CCCCC3)cccc2c1 [ZGGRR-ANSNH(cyclo-C6 H11)]
hydrolysis, t-PA (symbol d) ([2]; at 100 hours): d (hydrolysis at 100 hours was less than 10%.) | hydrolysis, u-PA (symbol d) (urokinase (u-PA); at 100 hours): d (hydrolysis at 100 hours was less than 10%.) | TIME TO 10% HYDROLYSIS (HOURS), Plm (plasmin (Plm)): 47 h | hydrolysis, VIIa (symbol d) (factor VIIa): d (hydrolysis at 100 hours was less than 10%.) | Kinetic constants, Xa (symbol b) (factor Xa [3]; Table 9): b | hydrolysis, Xa (symbol d) (factor Xa [3]; at 100 hours, 10 nM enzyme, substrate 1 μM): d (hydrolysis at 100 hours was less than 10%.) | TIME TO 10% HYDROLYSIS (HOURS), IIa (thrombin (IIa); 10 nM enzyme): 93 h | Kinetic constants, IIa (symbol b) (thrombin (IIa); Table 9): b | Kinetic constants, IXa (symbol b) (factor IXa; Table 9): b | hydrolysis, IXa (symbol d) (factor IXa; at 100 hours, 100 nM enzyme, substrate 1 μM): d (hydrolysis at 100 hours was less than 10%.) | TIME TO 10% HYDROLYSIS (HOURS), APC [4]: 0.6 h | Km [4]: 320 µM | kcat /Km, APC [4]: 19300 M⁻¹ s⁻¹ | kcat, APC [4]: 6.2 s⁻¹
